Measurements from patent US20260151363A1, “MELANOGENESIS INHIBITION COMPOSITIONS AND METHODS OF USE THEREOF” (MDI BIOLOGICAL LABORATORY, priority 2023, published 2026).
Like-named read-outs stand apart in the source and are kept apart here.

What was measured:
melanin production = assay: Melanin production and toxicity, ML233 analogs in parallel with ML233 (serial dilution); conditions: for toxicity: 25 μM
Method: The ML233 analogs were tested in parallel with serial dilution in DMSO: at 25 μM, 12.5 μM, […], 3.12 5 μM, 1.5625 μM and […].

tyrosinase [1] = assay: In vitro tyrosinase activity (FIG. 3B); format: biochemical; conditions: compared to DMSO
Text: The effect of ML233 on tyrosinase activity was also explored in in vitro experiments.

[2] = system: ME1154B human melanoma line; assay: cells; format: cell-based; conditions: ME1154B 3D organoids, read-out: IC50 viability/proliferation
Method: (§1) Because ML233 affected B16F10 murine melanoma-cell proliferation, the proliferative potential of human metastatic melanoma was determined. Patient-derived xenograft organoids (PDXOs), which were 3D in vitro models generated from patient tumors, were used. The effect of ML233 treatment (between 0.001 μM and 10 μM) in two different human melanoma cell lines collected from metastasis, ME1154B and ME2319B (Crown Bioscience). These two melanoma lines differed in their sensitivity to both ML233 and the control molecule, staurosporine (STS), in 3D organoids (FIGS. 12A-12B).

tyrosinase [3] = assay: Tyrosinase expression by Western blot and densitometry (FIG. 9); conditions: 15 μM
Method: An analysis of tyrosinase expression after ML233 treatment was performed. […] Quantitative analysis was also performed using densitometry of tyrosinase expression after ML233 treatment at 15 μM of the Western blot data (FIG. 9B). DMSO was a negative control, while phenylthiourea (PTU), which is a potent inhibitor of human tyrosinase), was used as a positive control. CRISPR was used as a specificity control of the antibody used in the analysis, where CRISPR was directed against the tyrosinase gene.

zebrafish embryos [4] = assay: Percent melanin quantity in zebrafish embryos; format: in vivo
Method: The effect of ML233 on percent melanin quantity was assayed in zebrafish embryos beginning at 4 hours post-fertilization and ending at 48 hours. Developing embryos were treated with ML233 in DMSO carrier at varying dosages, or DMSO as a negative control or with phenylthiourea (PTU) as a positive control.

[5] = system: B16F10 murine melanoma cell line; assay: B16F10 melanoma cell proliferation / viability; format: cell-based; conditions: Mus musculus, B16-F10
Method: ML233 reduced pigmentation in a mammalian melanoma cell line. In vivo, in vitro, and computational studies described here supported the hypothesis that ML233 was a direct inhibitor of TYR protein expression and function. The effects of ML233 and cisplatin on the proliferation of B16F-10 murine melanoma cells in vitro was analyzed. To determine the effects of conservation in higher vertebrate species, ML233 activity in the B16F10 murine melanoma cell line was tested. B16F10-cell proliferation was analyzed after ML233 treatment to determine IC50. A 50% reduction in cell viability at concentrations of ML233 between 5 and 10 μM was observed (FIG. 5A). Cells were treated with various concentration of ML233 or cisplatin and the cell viability of control percent versus the concentration of ML233 or cisplatin (in μM) was analyzed (FIGS. 5A and 5B).

zebrafish embryos [6] = assay: Zebrafish embryo viability / toxicity; format: in vivo; conditions: 2.5, five
Text: Studies were undertaken to evaluate the effect of ML233 on embryo viability. […] The number of viable and dead embryos at 1 day post fertilization (dpf), 2 dpf, 3 dpf and 4 dpf and at various doses of ML233 was compared to embryo viability in negative controls, which included embryos treated with the carrier DMSO or untreated embryos. (FIG. 4A).

B16F10 (murine melanoma) = assay: Tyrosinase protein expression (Western blot) and pigmentation in B16F10 cells; format: cell-based; conditions: 5 μM
Method: To study these two possibilities, an antibody raised against the human tyrosinase protein was used. The capacity of the antibody to recognize TYR in two different mammalian cell lines (FIG. 11A): B16F10 (murine melanoma) and A375 (human melanoma) was tested. Using the validated antibody, the level of tyrosinase protein expression by Western blot in control DMSO and 5 μM ML233 treated cells (FIG. 11B) was analyzed.

mushroom TYR = assay: Mushroom TYR conversion of L-DOPA to melanin in vitro (FIG. 3C); format: biochemical; conditions: 20 μM; compared to DMSO
Method: To determine whether ML233, a small inhibitor of melanogenesis, acts directly on tyrosinase (TYR) activity in vitro, the activity of mushroom TYR was assessed via measurement of its capacity to convert L-DOPA to melanin in vitro using Kojic Acid at 100 μM as a positive control.

[7] = system: B16F10 murine melanoma cells; assay: Melanin production in B16F10 cells (OD 410, IBMX-stimulated); format: cell-based
Method: To determine if ML233 could inhibit pigmentation of […] cells at low ML233 concentrations (without effects on cell proliferation), melanin production was analyzed in B16F10 cells after 24 hours of treatment with 0.625 μM, 1.25 μM, 2.5 μM, or 5 μM of ML233. Observation of cell pellets after centrifugation confirmed that ML233 function to inhibit melanin production was conserved in mammals (data not shown). The effect of ML233 and 3-isobutyl-1-methylxanthine (IBMX) on melanin production was analyzed in B16F10 murine melanoma cells. IBMX is a non-selective phosphodiesterase inhibitor, which induced melanin production in B16F10 murine melanoma cells. Melanin production was measured in cells treated with IBMX alone (100 micromolar), and IBMX in conjunction with: 0.625 micromolar ML233, 1.25 micromolar ML233, 2.5 micromolar ML233, and five micromolar ML233, as well as in negative control cells treated with DMSO vehicle alone. Melanin production in treated cells was measured using optical density (FIG. 6A) at a wavelength of 410 nm (OD value 410). Ratios with the total quantity of protein (OD value 562) were calculated (FIG. 6B). […] P-values are indicated in the bar charts.

zebrafish embryos [8] = assay: Bulk RNAseq and GSEA in WT and aplnr KO zebrafish embryos; format: in vivo; conditions: 0.5 μM
Text: Because ML233 is an agonist of the apelin receptors, ML233 driven differential expression in an apelin dependent and independent manner was investigated. […] A clear separation in gene expression between the WT and KO backgrounds was observed (FIG. 10C).

mitfa and tyr genes = assay: In situ hybridization of mitfa and tyr in zebrafish embryos; format: in vivo; conditions: for tyr mRNA detection (in situ hybridization): embryos at 48 hpf, treated between 24 and 48 hpf
Method: (§2) Example 10: Tyrosinase gene expression was not abolished by ML233 treatmentTo better understand the molecular action of ML233 on skin pigmentation and melanogenesis, the expression of genes involved in melanogenesis, including tyrosinase (tyr), dopachrome tautomerase (dct), and microphthalmia-associated transcription factor (mitfa), the latter which is known to control melanocyte formation and TYR expression, was analyzed.

zebrafish embryos [9] = assay: Pigmentation of zebrafish embryos (micrographs); format: in vivo
Method: Zebrafish embryos were allowed to develop in the presence of ML233 and the effects of ML233 on pigmentation was analyzed. ML233 was dissolved in carrier Dimethylsulfoxide (DMSO). Embryos were exposed to ML233 beginning at four hours post-fertilization and ending at 48 hours post-fertilization. Dimethylsulfoxide (DMSO) was used as a negative control. ML233 dosages tested were 2.5 micromolar, five micromolar, and 10 micromolar (FIG. 1A).
The effect of ML233 on pigmentation was analyzed in zebrafish embryos at 38 hours post-fertilization when larvae were highly pigmented. Embryos were treated with ML233 at the following concentrations: 5 micromolar, 10 micromolar, and 15 micromolar. The carrier, DMSO, was used as a negative control. Pigmentation was analyzed six hours (FIG. 2A) and 24 hours after ML233 addition (FIG. 2B).

[10] = system: tyr, dct, and mitfa mRNA expression; assay: RT-qPCR of tyr, dct and mitfa mRNA in zebrafish embryos; format: in vivo
Method: as §2

[11] = system: ME2319B human melanoma line; assay: PDXO viability/proliferation, ME2319B; format: cell-based; conditions: ME2319B 3D organoids
Method: as §1

tyrosinase [12] = assay: Tyrosinase activity in treated zebrafish embryos (absorbance of L-DOPA); format: in vivo
Method: To determine the effect of ML233 on tyrosinase activity, zebrafish embryos were treated with ML233 at the following concentrations: 0.5 micromolar, 1.25 micromolar, 2.5 micromolar, five micromolar, 10 micromolar, and 15 micromolar ML233 (FIG. 3A). DMSO was used as a carrier and the tyrosinase inhibitor PTU was used as a positive control.

[13] = serial dilution 25 μM to 0.78125

Compound: CC1=C/C(=N/OS(=O)(=O)c2ccccc2)C(C(C)C)=CC1=O [(i), [(Z)-(5-methyl-4-oxo-2-propan-2-ylcyclohexa-2,5-dien-1-ylidene)amino]benzenesulfonate]
- toxicity (melanin production): higher toxicity
- inhibition of melanin production (melanin production; [13]): Inhibition of melanin production was also observed

Compound: CC1=CC(=O)C(C(C)C)=C/C1=N\OS(=O)(=O)c1ccccc1 [(iii), [(E)-(2-methyl-4-oxo-5-propan-2-ylcyclohexa-2,5-dien-1-ylidene)amino]benzenesulfonate]
- toxicity (melanin production): higher toxicity
- inhibition of melanin production (melanin production; [13]): Inhibition of melanin production was also observed

Compound: CC1=CC(=O)C(C2CCCCC2)=C/C1=N\OS(=O)(=O)c1ccccc1 [ML233, (E)-2-cyclohexyl-5-methyl-4-(phenylsulfonyloxyimino)cyclohexa-2,5-dienone]
- reduction of tyrosinase activity (tyrosinase [1]; 20 micromolar): greater than 40%
- reduction of tyrosinase activity (tyrosinase [1]; 30 micromolar): 50%
- IC50 [2]: 1650 nM
- inhibition of melanin production (melanin production; 3.125 μM and lower concentrations): very efficient at inhibiting melanin production
- tyrosinase expression (Western blot) (tyrosinase [3]): tyrosinase expression was inhibited
- melanin production (percent melanin quantity) (zebrafish embryos [4]; 0.5 to 15 micromolar, 4 to 48 hours post-fertilization): significantly inhibited melanin production at all levels tested
- melanin quantity compared with PTU (zebrafish embryos [4]; 5 micromolar and above): comparable to treatment with PTU
- IC50 ([5]; B16F10, read-out: concentration giving 50% reduction in cell viability): 5 to 10 µM
- IC50 ([5]; B16F10 proliferation, read-out: in vitro IC50): 10 µM
- percent viability at day four post fertilization (zebrafish embryos [6]; 10 and 20 micromolar): No deleterious effects on zebrafish viability
- toxicity (viable and dead embryos at 1 to 4 dpf) (zebrafish embryos [6]; 10 and 20 micromolar from 4 hours post-fertilization): low toxicity at effective concentrations
- pigmentation of cells (B16F10 (murine melanoma)): strong reduction in the pigmentation
- TYR protein expression normalized with Beta-actin (B16F10 (murine melanoma); vs DMSO): no significant reduction of TYR protein expression
- reduction of melanogenesis (L-DOPA to melanin) (mushroom TYR): ~40%
- melanogenesis (melanin OD 410; ratio to protein OD 562) ([7]; IBMX 100 micromolar plus 0.625, 1.25, 2.5 or five micromolar ML233): reduced melanogenesis in mammalian melanoma cells at all dosages
- B16F10 cells survival ([7]; between 0.625 and 5 μM): without affecting B16F10 cells survival
- melanoma-cell pigmentation (absorbance quantification of melanin) ([7]; concentrations as low as 0.625 μM): significantly reduced
- impact on biological processes (GSEA) (zebrafish embryos [8]): did not significantly impact biological processes
- mitfa and tyr gene expression in melanocytes (in situ hybridization) (mitfa and tyr genes; 2 dpf after 1 day of 15 μM): still expressed in melanocytes
- tyr mRNA detection (in situ hybridization) (mitfa and tyr genes): highly detectable
- pigmentation of embryos (zebrafish embryos [9]; 2.5, five and 10 micromolar, exposure 4 to 48 hours post-fertilization, vs DMSO): visible decrease in pigmentation
- pigmentation of embryos (zebrafish embryos [9]; treated at 38 hours post-fertilization, 5, 10, 15 micromolar, six hours and 24 hours after addition): reduced pigmentation at all dosages
- tyr expression by RT-qPCR ([10]; 5 μM and greater): Significantly decreased
- maximum reduction of tyr expression ([10]; 20 μM, compared to DMSO-treated embryos): ~40%
- mitfa expression by RT-qPCR ([10]; any concentration): not significantly dysregulated
- tyr, dct, and mitfa mRNA expression by RT-qPCR ([10]; embryos at 2 dpf after 1 day of treatment): mild reduction of gene expression
- viability ([11]; between 0.001 μM and 10 μM): did not affect ME2319B viability at any concentration tested
- percent of tyrosinase activity compared with PTU (tyrosinase [12]; 10 micromolar and 15 micromolar ML233 groups): comparable to PTU
- tyrosinase activity (tyrosinase [12]; concentration as low as 0.5 micromolar): significantly reduced

Compound: NC(=S)Nc1ccccc1 [PTU, phenylthiourea, reference compound]
- tyr mRNA detection (in situ hybridization) (mitfa and tyr genes): highly detectable

Compound: CN[C@@H]1C[C@H]2O[C@@](C)([C@@H]1OC)n1c3ccccc3c3c4c(c5c6ccccc6n2c5c31)C(=O)NC4 [STS, staurosporine, reference compound]
- IC50 ([11]; Homo sapiens): 2.5 nM

Compound: [(E)-(5-methyl-4-oxo-2-propan-2-ylcyclohexa-2,5-dien-1-ylidene)amino]4-methylbenzenesulfonate [(ii)]
- inhibition of melanin production (melanin production; [13]): Inhibition of melanin production was also observed
